pKi: −log10 of the molar value. Where a name gives a salt, the structure may show the parent alone. Read-outs that look alike come from different tables or passages of the source.

One may read the melting point as the temperature, or range, at which the solid turns liquid. Broadly, the pKi is −log10 of the Ki, conventionally taken in molar units.

The target in data set [1] is T1, rat histamine H3 receptor (Rattus norvegicus, UniProt Q9QYN8).
T1 construct: encoding the entire 445-amino-acid rat histamine H3 receptor; expressed in transfected cells; membrane preparation
T1 sequence (Q9QYN8 whole entry): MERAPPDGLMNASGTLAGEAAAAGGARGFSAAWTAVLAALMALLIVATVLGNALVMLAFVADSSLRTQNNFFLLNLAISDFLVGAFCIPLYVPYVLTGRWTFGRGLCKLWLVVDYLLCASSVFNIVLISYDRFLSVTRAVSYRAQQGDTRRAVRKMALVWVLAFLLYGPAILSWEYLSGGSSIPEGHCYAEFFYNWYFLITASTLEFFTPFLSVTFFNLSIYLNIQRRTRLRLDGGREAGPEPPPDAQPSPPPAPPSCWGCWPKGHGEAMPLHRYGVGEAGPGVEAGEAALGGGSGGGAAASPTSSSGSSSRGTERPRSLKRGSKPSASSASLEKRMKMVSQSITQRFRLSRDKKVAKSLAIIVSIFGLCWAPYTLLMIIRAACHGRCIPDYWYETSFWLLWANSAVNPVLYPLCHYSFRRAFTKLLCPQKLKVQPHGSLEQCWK
The experiment in a line: Rat H3 radioligand binding ([3H]-N-alpha-methylhistamine, SPA). The text has this: Cell line development and membrane preparation. The rat H3 receptor cDNA was PCR amplified from reverse-transcribed RNA pooled from rat thalamus, hypothalamus, striatum and prefrontal cortex with a sequence corresponding to by #338-1672 of Genbank file #NM_053506, encoding the entire 445-amino-acid rat histamine H3 receptor. This was engineered into the pIRES-neo3 mammalian expression vector, which was stably transfected into the CHO-A3 cell line (Euroscreen, Belgium), followed by clonal selection by limiting dilution. Cells were harvested and cell pellets were frozen (−80° C.). Cell pellets were resuspended in 5 mM Tris-HCl, pH 7.5 with […] and a cocktail of protease inhibitors (Complete Protease Inhibitior Tablets, Roche Diagnostics). Cells were disrupted using a polytron cell homogenizer and the suspension was centrifuged at 1000×g for 10 minutes at 4° C. The pellet was discarded and the supernatant centrifuged at 40,000×g for 30 min at 4° C. This membrane pellet was washed in membrane buffer containing 50 mM Tris-HCl, pH 7.5 with 0.6 mM EDTA, 5 mM MgCl2 and protease inhibitors, recentrifuged as above and the final pellet resuspended in membrane buffer plus 250 mM sucrose and frozen at −80° C.
(§1) Radioligand Binding. Membranes were resuspended in 50 mM Tris HCl (pH 7.4), 5 mM MgCl2, 0.1% BSA. The membrane suspensions (10 μg protein per well) were incubated in a 96 well microtiter plate with [^3H]-N-alpha-methylhistamine (approximately 1 nM final concentration), test compounds at various concentrations (0.01 nM-30 μM) and scintillation proximity beads (Perkin Elmer, FlashBlueGPCR Scintillating Beads) in a final volume of 80 μl for 4 hours at room temperature, protected from light. Non-specific binding was determined in the presence of 10 μM clobenpropit. Radioligand bound to receptor, and therefore in proximity to the scintillation beads, was measured using a MicroBeta scintillation counter.

Data set [2] concerns the target T2, human H3 receptor (Homo sapiens, UniProt Q9Y5N1).
T2 construct: expressed in transfected cells
The experiment in a line: Human H3 radioligand binding ([3H]-N-alpha-methylhistamine, SPA). How it is done:
Methods: CHO cells stably expressing the human H3 receptor (GenBank: NM_007232) were harvested and cell pellets were frozen (−80° C.). Cell pellets were resuspended in 5 mM Tris-HCl, pH 7.5 with […] and a cocktail of protease inhibitors (Complete Protease Inhibitior Tablets, Roche Diagnostics). Cells were disrupted using a polytron cell homogenizer and the suspension was centrifuged at 1000×g for 10 minutes at 4° C. The pellet was discarded and the supernatant centrifuged at 40,000×g for 30 min at 4° C. This membrane pellet was washed in membrane buffer containing 50 mM Tris-HCl, pH 7.5 with 0.6 mM EDTA, 5 mM MgCl2 and protease inhibitors, recentrifuged as above and the final pellet resuspended in membrane buffer plus 250 mM sucrose and frozen at −80° C.
as §1

Setting [3] is: Table A, rat H3 binding, read-out: Rat Ki.
The mark [4] stands for this setting: Table A, human H3 binding, read-out: Human Ki.
Where [5] appears, read: human H3 binding, Table D, read-out: Human H3 Ki.
Setting [6] is: rat H3 binding, Table D, read-out: Rat H3 Ki.

T2 sequence (Q9Y5N1 whole entry): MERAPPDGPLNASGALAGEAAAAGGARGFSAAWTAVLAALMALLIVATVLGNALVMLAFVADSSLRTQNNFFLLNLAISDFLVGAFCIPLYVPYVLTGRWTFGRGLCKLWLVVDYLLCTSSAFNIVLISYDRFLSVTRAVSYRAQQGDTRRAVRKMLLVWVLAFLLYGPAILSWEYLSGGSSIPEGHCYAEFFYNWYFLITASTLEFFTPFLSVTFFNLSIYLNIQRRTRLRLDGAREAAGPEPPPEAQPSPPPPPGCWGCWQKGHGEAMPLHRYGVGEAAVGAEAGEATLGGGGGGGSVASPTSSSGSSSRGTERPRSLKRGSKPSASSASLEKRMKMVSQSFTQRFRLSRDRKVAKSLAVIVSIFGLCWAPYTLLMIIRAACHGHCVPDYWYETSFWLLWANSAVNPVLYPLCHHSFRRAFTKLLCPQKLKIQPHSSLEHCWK

In turn, `Cc1nc(C)c(-c2ccc3c(c2)COC2(CCN(C4CCC4)CC2)O3)s1` (as salt: HCl) [Example 70] returned a melting point of 225 to 227 °C.
Still for that read-out and setting: the value for `c1ccc(Oc2ccc3c(c2)COC2(CCN(C4CCC4)CC2)O3)cc1` (as salt: HCl) [Example 131] was 240 to 245 °C.
Still for that read-out and setting: the result for `c1cc2c(cc1OC1CCNCC1)CCC1(CCN(C3CCC3)CC1)O2` (as salt: HCl) [Example 425] reads above 320 °C; that for `CC(C)Cn1cc(-c2ccc3c(c2)COC2(CCN(C4CCC4)CC2)O3)ccc1=O` (as salt: HCl) [Example 562], 182 to 190 °C.
Still for that read-out and setting: the value for `CC(C)CN1CC(c2ccc3c(c2)COC2(CCN(C4CCC4)CC2)O3)CCC1=O` (stereo not drawn) (as salt: HCl) [Example 564] was 98 to 103 °C.
Regarding `Fc1cncc(-c2ccc3c(c2)COC2(CCN(C4CCC4)CC2)O3)c1` [Example 4], the melting point was 140 to 145 °C. The negative logarithm of the Ki (pKi) in data set [1] (setting [3]) is above 6.70. Further, the pKi in data set [2] (setting [4]) is above 6.70.
As for `c1cc(-c2ccc3c(c2)COC2(CCN(C4CCC4)CC2)O3)co1` [Example 5], the melting point was 150 to 152 °C. In data set [1] (setting [3]), the negative-log Ki (pKi) is above 6.70. Moreover, the negative-log Ki (pKi) in data set [2] (setting [4]) is above 6.70.
For `c1cn2cc(-c3ccc4c(c3)COC3(CCN(C5CCC5)CC3)O4)ccc2n1` [Example 19], the melting point lay within 64.5 to 66 °C. For the same molecule, in data set [1] (setting [3]), the pKi was above 6.70. In addition, in data set [2] (setting [4]), the pKi was above 6.70.
For `COc1ccc(-c2ccc3c(c2)COC2(CCN(C4CCC4)CC2)O3)cn1` [Example 22], the melting point is 122 to 124 °C. Besides, in data set [1] (setting [3]), the pKi was above 6.70. Further, the pKi in data set [2] (setting [4]) is above 6.70.
On to `COCCNC(=O)c1ccc(-c2ccc3c(c2)COC2(CCN(C4CCC4)CC2)O3)cc1` [Example 26], for which the melting point fell in the range of 145 to 147 °C. Moreover, in data set [1] (setting [3]), the negative logarithm of the Ki (pKi) was above 6.70. Besides, in data set [2] (setting [4]), the negative-log Ki (pKi) was above 6.70.
The molecule `O=C(c1ccc(-c2ccc3c(c2)COC2(CCN(C4CCC4)CC2)O3)cc1)N1CCCCC1` [Example 27] had a melting point of 59 to 62 °C. The negative logarithm of the Ki (pKi) in data set [1] (setting [3]) was above 6.70. Besides, the pKi in data set [2] (setting [4]) is above 6.70.
Molecule `CCOC(=O)c1ccc(-c2ccc3c(c2)COC2(CCN(C4CCC4)CC2)O3)cc1` [Example 28] showed a melting point of 148 to 149 °C. Moreover, the negative-log Ki (pKi) in data set [1] (setting [3]) is above 6.70. The pKi in data set [2] (setting [4]) is above 6.70.
On to `CN(C)C(=O)c1ccc(-c2ccc3c(c2)COC2(CCN(C4CCC4)CC2)O3)cc1` [Example 29], for which the melting point lay in the range of 187 to 190 °C. For the same molecule, the pKi in data set [1] (setting [3]) was above 6.70. In addition, the pKi in data set [2] (setting [4]) is above 6.70.
The molecule `CCN(C)C(=O)c1ccc(-c2ccc3c(c2)COC2(CCN(C4CCC4)CC2)O3)cc1` [Example 30] registered a melting point of 140 to 141 °C. The pKi in data set [1] (setting [3]) is above 6.70. Further, the pKi in data set [2] (setting [4]) is above 6.70.
`Cc1ccc(-c2ccc3c(c2)COC2(CCN(C4CCC4)CC2)O3)cn1` [Example 31]: the melting point lay within 137 to 139 °C. In data set [1] (setting [3]), the negative logarithm of the Ki (pKi) is above 6.70. The negative-log Ki (pKi) in data set [2] (setting [4]) was above 6.70.
`CNC(=O)c1ccc(-c2ccc3c(c2)COC2(CCN(C4CCC4)CC2)O3)cc1` [Example 33] had a melting point of 198 to 199 °C. For the same molecule, the pKi in data set [1] (setting [3]) was above 6.70. Besides, the pKi in data set [2] (setting [4]) was above 6.70.
On to `N#Cc1ccc(-c2ccc3c(c2)COC2(CCN(C4CCC4)CC2)O3)cn1` [Example 34], for which the melting point was in the range of 159.8 to 160.7 °C. Further, the pKi in data set [1] (setting [3]) was above 6.70. For the same molecule, the pKi in data set [2] (setting [4]) was above 6.70.
`CC(C)NS(=O)(=O)c1ccc(-c2ccc3c(c2)COC2(CCN(C4CCC4)CC2)O3)cc1` [Example 35] gave a melting point of 85 to 90 °C. Besides, the pKi in data set [1] (setting [3]) is above 6.70. Also, in data set [2] (setting [4]), the pKi was above 6.70.
Consider `CNC(=O)c1ccc(-c2ccc3c(c2)COC2(CCN(C4CCC4)CC2)O3)cc1F` [Example 36], for which the melting point fell in the range of 147.8 to 149 °C. Besides, the pKi in data set [1] (setting [3]) is above 6.70. Further, in data set [2] (setting [4]), the negative logarithm of the Ki (pKi) is above 6.70.
Consider `O=S(=O)(c1ccc(-c2ccc3c(c2)COC2(CCN(C4CCC4)CC2)O3)cc1)N1CCCCC1` [Example 37], for which the melting point fell in the range of 85 to 90 °C. The pKi in data set [1] (setting [3]) was above 6.70. Further, in data set [2] (setting [4]), the negative logarithm of the Ki (pKi) was above 6.70.
On to `c1ccc(-c2ccc3c(c2)COC2(CCN(C4CCC4)CC2)O3)cc1` [Example 39], for which the melting point lay within 127.8 to 128.6 °C. Moreover, in data set [1] (setting [3]), the negative logarithm of the Ki (pKi) is above 6.70. The negative logarithm of the Ki (pKi) in data set [2] (setting [4]) was above 6.70.
Consider `CN(C)C(=O)c1ccc(-c2ccc3c(c2)COC2(CCN(C4CCC4)CC2)O3)cc1F` [Example 40], for which the melting point was 172.9 to 173.5 °C. Moreover, the pKi in data set [1] (setting [3]) is above 6.70. In addition, the pKi in data set [2] (setting [4]) was above 6.70.
Take `O=C(c1ccc(-c2ccc3c(c2)COC2(CCN(C4CCC4)CC2)O3)cc1F)N1CCCC1` [Example 41]: the melting point was 171 to 172.5 °C. In data set [1] (setting [3]), the pKi was above 6.70. The negative-log Ki (pKi) in data set [2] (setting [4]) is above 6.70.
On to `Cc1c(-c2ccc(=O)n(C)c2)ccc2c1COC1(CCN(C3CCC3)CC1)O2` [Example 557], for which the negative-log Ki (pKi) in data set [1] (read-out: Rat H3 kI) and in data set [2] (read-out: Human H3 Ki) was above 6.70 each time.
In the case of `CC(C)Cn1cc(-c2ccc3c(c2)COC2(CCN(C4CCC4)CC2)O3)ccc1=O` [Example 562], the pKi in data set [1] (read-out: Rat H3 kI) and in data set [2] (read-out: Human H3 Ki) was above 6.70 throughout.
Take `CC(C)CN1CC(c2ccc3c(c2)COC2(CCN(C4CCC4)CC2)O3)CCC1=O` (stereo not drawn) [Example 564]: the negative-log Ki (pKi) in data set [1] (read-out: Rat H3 kI) and in data set [2] (read-out: Human H3 Ki) was above 6.70 throughout.
On to `COC1(c2ccc3c(c2)COC2(CCN(C4CCC4)CC2)O3)CCC(C(F)(F)F)CC1` (stereo not drawn) [Example 568], for which the pKi in data set [1] (read-out: Rat H3 kI) and in data set [2] (read-out: Human H3 Ki) was above 6.70 throughout.
In the case of `O=C(O)CCc1ccc2c(c1)COC1(CCN(C3CCC3)CC1)O2` [Example 637], the melting point fell in the range of 235 to 237 °C. Further, the pKi in data set [2] (setting [5]) is 6.00 to 6.70.
Regarding `c1ncc(Cc2ccc3c(c2)COC2(CCN(C4CCC4)CC2)O3)s1` [Example 690], the pKi in data set [1] (setting [6]) and in data set [2] (setting [5]) was above 6.70 each time.
Take `c1csc(Cc2ccc3c(c2)COC2(CCN(C4CCC4)CC2)O3)n1` [Example 696]: the pKi in data set [1] (setting [6]) and in data set [2] (setting [5]) was above 6.70 in each case.
With `c1nc(Cc2ccc3c(c2)COC2(CCN(C4CCC4)CC2)O3)cs1` [Example 701], the pKi in data set [1] (setting [6]) and in data set [2] (setting [5]) was above 6.70 in each case.
`CC(C)(C)OC(=O)n1cccc1-c1ccc2c(c1)COC1(CCN(C3CCC3)CC1)O2` [Example 706]: the pKi in data set [1] (setting [6]) and in data set [2] (setting [5]) was above 6.70 each time.
For `O=c1ccc(-c2ccc3c(c2)COC2(CCN(C4CC(CO)C4)CC2)O3)c[nH]1` (stereo not drawn) [Example 721], the melting point lay in the range of 228 to 230 °C. The pKi in data set [2] (setting [5]) was below 6.00.
Consider `COC(c1ccncc1)c1ccc2c(c1)COC1(CCN(C3CCC3)CC1)O2` (stereo not drawn) [Example 724], for which the pKi in data set [1] (setting [6]) and in data set [2] (setting [5]) was above 6.70 each time.
Turning to `O=C(c1ccncc1)N1CCN(c2ccc3c(c2)COC2(CCN(C4CCC4)CC2)O3)C(=O)C1` [Example 741], the negative logarithm of the Ki (pKi) in data set [1] (setting [6]) and in data set [2] (setting [5]) was above 6.70 each time.
As for `COCc1cc(=O)n(C)cc1-c1ccc2c(c1)COC1(CCN(C3CCC3)CC1)O2` [Example 790], the pKi in data set [1] (setting [6]) and in data set [2] (setting [5]) was above 6.70 in each case.
As for `CCS(=O)(=O)c1cc(-c2ccc3c(c2)COC2(CCN(C4CCC4)CC2)O3)c[nH]c1=O` [Example 807], the negative-log Ki (pKi) in data set [1] (setting [6]) and in data set [2] (setting [5]) was above 6.70 each time.

Source of the values: patent US8513232B2, “Substituted spirocyclic piperidine derivatives as histamine-3 (H3) receptor ligands” (Cephalon, Inc., priority 2008, dated 2013).
